According to paper PMC6348444, “New Water-Soluble Copper(II) Complexes with Morpholine–Thiosemicarbazone Hybrids: Insights into the Anticancer and Antibacterial Mode of Action” (Journal of Medicinal Chemistry, 2018):

Tests used:
Assay type in all cases: cell-based, human
A2780 cells [1] = test: MTT cytotoxicity assay, A2780; conditions: 72 h exposure
A2780 cells [2] = test: Annexin V/PI apoptosis assay; conditions: 24 h
Excerpt: To elucidate if observed cytotoxicity of new compounds described in this study was a result of apoptosis induction, we conducted Annexin V/PI apoptosis assay. In brief, fluorochrome-labeled Annexin V reagent is used for detection of membrane phosphatidylserine (PS), which translocates to the cellular surface from the inner side of plasma membrane in the event of early apoptosis. Simultaneously, PI is used for detection of later stages of apoptosis or necrosis, which are characterized by loss of membrane integrity and accumulation of PI inside the cells. […] Results are illustrated in Figure 9. Upon incubation of A2780 cells with increasing concentrations of HL^2 and 2, the dose-dependent increase of apoptotic cells was observed.
A2780 cells were seeded into Cellstar 12-well plates (Greiner Bio-One) at a density of 20 × 10^4 cells/well (1 mL per well). The cells were allowed to resume exponential growth for 24 h and subsequently they were exposed to HL^2 and 2 at different concentrations for 24 h. After the supernatant solution was collected in 1.5 mL microtubes, the cells were washed with 100 μL of trypsin, which was combined with the supernatant. Subsequently, cells were trypsinized with 200 μL of trypsin for 5 min at 37 °C, 5% CO2, washed with 200 μL of PBS, and combined with the supernatant. The cells were centrifuged at 2.5 × 10^3 rpm for 5 min and the pellets were washed once with PBS and resuspended in 500 μL of Annexin V binding buffer and stained with Annexin V-FITC and PI reagents. The fluorescence was immediately analyzed by flow cytometry. The resulting dot blots were acquired from 10 000 events and quantified using Flowjo software (Flowjo LLC, Ashland, OR, USA).

A2780 cells [3] = test: Cellular accumulation of Cu by ICP-MS; conditions: 24 h exposure, 1 μM
Excerpt: The ability of anticancer drugs to penetrate biological membranes, tissues, and barriers underlies their biological, pharmacokinetic, and metabolic properties. These properties can be predicted by calculating physicochemical characteristics of drug candidates using molecular descriptors.[30] […] The results are shown in Table S7 in the Supporting Information. On the basis of the calculated physicochemical parameters, we determined if novel compounds belonged to the drug-like chemical space, which is commonly defined by the well-known Lipinski rule, or to the known drug space (KDS), which includes all small compounds in medical use.[31] […] Following the calculations, we determined the lipophilicity of all compounds experimentally (log D7.4, Tables 1 and 2). It is known that cancer cells accumulate hydrophilic compounds to a smaller extent relative to hydrophobic compounds, thereby affecting their activity. […] As expected, proligands were more lipophilic than the corresponding Cu(II) species, which are positively charged at physiological pH (Figure 3b). […] The lipophilicity of 2–5 increased in the following order 4 < 2 < 3 < 5, and correlated well with their cytotoxicity in cancer cells, with the exception of 3. Subsequently, we determined the total cellular accumulation of Cu in A2780 cells by ICP–MS upon 24 h exposure to 1–6 in comparison with CuCl2 (Table 2). […] The accumulation increased in the order 6 < 1 < 3 < 4 < 2 < 5.
Cellular accumulation of 1–6 was determined in A2780 cells. Cells were seeded into Cellstar 6-well plates (Greiner Bio-one) at a density of 60 × 10^4 cells/well (2 mL per well). After the cells were allowed to resume exponential growth for 24 h, they were exposed to 1–6 at 1 μM for 24 h at 37 °C. The cells were washed twice with 1 mL of PBS and lysed with RIPA lysis buffer for 5–10 min at 4 °C. The cell lysates were scraped from the wells and transferred to separate 1.5 mL microtubes. The supernatant was then collected after centrifugation (13 000 rpm, 4 °C for 15 min) and total protein content of each sample was quantified via Bradford’s assay. Cell lysates were transferred to 2 mL glass vials and then digested with ultrapure 65% HNO3 at 100 °C for 24 h. The resulting solution was diluted to 1 mL (2–4% v/v HNO3) with ultrapure Milli-Q water. Cu content of each sample was quantified by ICP–MS. In was used as an internal standard. Cu and In were measured at m/z 64 and m/z 115, respectively. Metal standards for calibration curve (0, 0.5, 1, 2, 5, 10, 20, and 40 ppb) were freshly prepared before each measurement. All readings were made in triplicates in He mode. For temperature-dependent cellular accumulation experiments, A2780 cells were seeded into 35 n 10 mm tissue culture plates at a density of 60 0 10^4 cells/plate. After the cells were allowed to resume exponential growth for 24 h, they were exposed to 2 at 3 μM for 10, 30, 60, and 120 min at 37 and 4 °C. The subsequent analysis was performed as described above. For energy-dependent experiments, A2780 cells were seeded into 35 5 10 mm tissue culture plates at a density of 1 0 10^6 cells/plate. After the cells were allowed to resume exponential growth for 24 h, they were preincubated with oligomycin (5 μM) for 1 or 4 h or with cycloheximide (100 μM) for 4 h and further co-incubated with 3 μM of 2 at 37 °C. To induce total starvation, after the cells were allowed to resume exponential growth for 24 h, RPMI media was replaced with HBSS, and cells were preincubated in HBSS for 1 h and further incubated with 3 μM of 2 for 1 h at 37 °C. The subsequent analysis was performed as described above.

HEK293 cells = test: MTT cytotoxicity assay, HEK293; conditions: for SF (selectivity factor): IC50(HEK293)/IC50(A2780); for IC50: MTT assay, 72 h exposure, noncancerous cells
A2780cisR cells = test: MTT cytotoxicity assay, A2780cisR; conditions: for RF (resistance factor): IC50(A2780cisR)/IC50(A2780); for IC50: MTT assay, 72 h exposure, cisplatin-resistant A2780cisR, read-out: IC50 A2780cis

| SMILES | IC50 (A2780 cells [1]) | apoptotic cells (A2780 cells [2]; A2780, 2IC50 concentration) | apoptotic cells (A2780 cells [2]; A2780, 6IC50 concentration) | cellular accumulation A2780 (A2780 cells [3]) | SF (selectivity factor) (HEK293 cells) | IC50 (HEK293 cells) | RF (resistance factor) (A2780cisR cells) | IC50 (A2780cisR cells) |
| --- | --- | --- | --- | --- | --- | --- | --- | --- |
| CN(C)C(=NN=Cc1ccc(CN2CCOCC2)cn1)[S][Cu][Cl] [complex 2, [Cu(L^2)Cl]] | 12 ± 2 nM | 22.5 ± 5.3% | 24.4 ± 7.8% | 3.9 ± 0.6 nmol Cu/mg protein | 2.7 | 32 ± 8 nM | 2.5 | 30 ± 3 nM |
| [Cl][Cu][S]C(=NN=Cc1ccc(CN2CCOCC2)cn1)Nc1ccccc1 [complex 5, [Cu(L^5)Cl]] | 9 ± 2 nM | – | – | 4.1 ± 0.9 nmol Cu/mg protein | 2.2 | 20 ± 3 nM | 1.9 | 17 ± 2 nM |
